Activity calls are given as the source filed them. The rule behind the calls is not given here.
System: CCRIS mutagenicity, Ames/micronucleus/aberration tests
Assay: CCRIS mutagenicity studies
[1] = Test System: AMES SALMONELLA TYPHIMURIUM, Strain/Indicator: TA98, Metabolic Activation: NONE, Method: STANDARD PLATE
[2] = Test System: AMES SALMONELLA TYPHIMURIUM, Strain/Indicator: TA98, Metabolic Activation: RAT, LIVER, S-9, AROCLOR 1254, Method: STANDARD PLATE
[3] = Test System: AMES SALMONELLA TYPHIMURIUM, Strain/Indicator: TA100, Metabolic Activation: NONE, Method: STANDARD PLATE
[4] = Test System: AMES SALMONELLA TYPHIMURIUM, Strain/Indicator: TA100, Metabolic Activation: RAT, LIVER, S-9, AROCLOR 1254, Method: STANDARD PLATE
[5] = Test System: AMES SALMONELLA TYPHIMURIUM, Strain/Indicator: TA1537, Metabolic Activation: NONE, Method: STANDARD PLATE
[6] = Test System: AMES SALMONELLA TYPHIMURIUM, Strain/Indicator: TA98, Metabolic Activation: HAMSTER, LIVER, S-9, AROCLOR 1254 (10%), Method: PREINCUBATION
[7] = Test System: AMES SALMONELLA TYPHIMURIUM, Strain/Indicator: TA98, Metabolic Activation: NONE, Method: PREINCUBATION
[8] = Test System: AMES SALMONELLA TYPHIMURIUM, Strain/Indicator: TA98, Metabolic Activation: RAT, LIVER, S-9, AROCLOR 1254 (10%), Method: PREINCUBATION
[9] = Test System: AMES SALMONELLA TYPHIMURIUM, Strain/Indicator: TA100, Metabolic Activation: HAMSTER, LIVER, S-9, AROCLOR 1254 (10%), Method: PREINCUBATION
[10] = Test System: AMES SALMONELLA TYPHIMURIUM, Strain/Indicator: TA100, Metabolic Activation: NONE, Method: PREINCUBATION
[11] = Test System: AMES SALMONELLA TYPHIMURIUM, Strain/Indicator: TA100, Metabolic Activation: RAT, LIVER, S-9, AROCLOR 1254 (10%), Method: PREINCUBATION
[12] = Test System: AMES SALMONELLA TYPHIMURIUM, Strain/Indicator: TA1535, Metabolic Activation: HAMSTER, LIVER, S-9, AROCLOR 1254 (10%), Method: PREINCUBATION
[13] = Test System: AMES SALMONELLA TYPHIMURIUM, Strain/Indicator: TA1535, Metabolic Activation: NONE, Method: PREINCUBATION
[14] = Test System: AMES SALMONELLA TYPHIMURIUM, Strain/Indicator: TA1535, Metabolic Activation: RAT, LIVER, S-9, AROCLOR 1254 (10%), Method: PREINCUBATION
[15] = Test System: AMES SALMONELLA TYPHIMURIUM, Strain/Indicator: TA1537, Metabolic Activation: HAMSTER, LIVER, S-9, AROCLOR 1254 (10%), Method: PREINCUBATION
[16] = Test System: AMES SALMONELLA TYPHIMURIUM, Strain/Indicator: TA1537, Metabolic Activation: NONE, Method: PREINCUBATION
[17] = Test System: AMES SALMONELLA TYPHIMURIUM, Strain/Indicator: TA1537, Metabolic Activation: RAT, LIVER, S-9, AROCLOR 1254 (10%), Method: PREINCUBATION

| SMILES | mutagenic call [1] | mutagenic call [3] | mutagenic call [6] | mutagenic call [7] | mutagenic call [8] | mutagenic call [9] | mutagenic call [10] | mutagenic call [11] | mutagenic call [12] | mutagenic call [13] | mutagenic call [14] | mutagenic call [15] | mutagenic call [16] | mutagenic call [17] | other results |
| --- | --- | --- | --- | --- | --- | --- | --- | --- | --- | --- | --- | --- | --- | --- | --- |
| C=C1C[C@@]23CC[C@H]4[C@@](C)(CCC[C@@]4(C)C(=O)O[C@@H]4O[C@H](CO)[C@@H](O)[C@H](O)[C@H]4O)[C@@H]2CC[C@]1(O[C@@H]1O[C@H](CO)[C@@H](O)[C@H](O[C@@H]2O[C@H](CO)[C@@H](O)[C@H](O)[C@H]2O)[C@H]1O[C@@H]1O[C@H](CO)[C@@H](O)[C@H](O)[C@H]1O)C3 | – | – | – | – | – | – | – | – | – | – | – | – | – | – | mutagenic call (Test System: AMES SALMONELLA TYPHIMURIUM, Strain/Indicator: TM677, Metabolic Activation: RAT, LIVER, S-9, AROCLOR 1254, Method: PREINCUBATION): inactive; negative |
| C[C@@H]1O[C@@H](OC[C@H]2O[C@@H](Oc3c(-c4ccc(OCCO)c(OCCO)c4)oc4cc(OCCO)cc(O)c4c3=O)[C@H](O)[C@@H](O)[C@@H]2O)[C@H](O)[C@H](O)[C@H]1O | inactive; negative | inactive; negative | – | – | – | – | – | – | – | – | – | – | – | – | mutagenic call [2]: inactive; negative; mutagenic call [4]: inactive; negative; mutagenic call (Test System: AMES SALMONELLA TYPHIMURIUM, Strain/Indicator: TA1535, Metabolic Activation: NONE, Method: STANDARD PLATE): inactive; negative; mutagenic call (Test System: AMES SALMONELLA TYPHIMURIUM, Strain/Indicator: TA1535, Metabolic Activation: RAT, LIVER, S-9, AROCLOR 1254, Method: STANDARD PLATE): inactive; negative; mutagenic call [5]: inactive; negative; mutagenic call (Test System: AMES SALMONELLA TYPHIMURIUM, Strain/Indicator: TA1537, Metabolic Activation: RAT, LIVER, S-9, AROCLOR 1254, Method: STANDARD PLATE): inactive; negative; mutagenic call (Test System: AMES SALMONELLA TYPHIMURIUM, Strain/Indicator: TA1538, Metabolic Activation: NONE, Method: STANDARD PLATE): inactive; negative; mutagenic call (Test System: AMES SALMONELLA TYPHIMURIUM, Strain/Indicator: TA1538, Metabolic Activation: RAT, LIVER, S-9, AROCLOR 1254, Method: STANDARD PLATE): inactive; negative |
| CCCCOC(=O)c1ccccc1N | – | – | inactive; negative | inactive; negative | inactive; negative | inactive; negative | inactive; negative | inactive; negative | inactive; negative | inactive; negative | inactive; negative | inactive; negative | inactive; negative | inactive; negative | – |
| CCC1C(C)=NN=C(c2ccc(OC)c(OC)c2)c2cc(OC)c(OC)cc21 (configuration not stated) | inactive; negative | inactive; negative | – | – | – | – | – | – | – | – | – | – | – | – | mutagenic call (Test System: AMES SALMONELLA TYPHIMURIUM, Strain/Indicator: TA97, Metabolic Activation: NONE, Method: STANDARD PLATE): inactive; negative; mutagenic call (Test System: AMES SALMONELLA TYPHIMURIUM, Strain/Indicator: TA97, Metabolic Activation: RAT LIVER S-9, AROCLOR 1254, Method: STANDARD PLATE): inactive; negative; mutagenic call (Test System: AMES SALMONELLA TYPHIMURIUM, Strain/Indicator: TA98, Metabolic Activation: RAT LIVER S-9, AROCLOR 1254, Method: STANDARD PLATE): inactive; negative; mutagenic call (Test System: AMES SALMONELLA TYPHIMURIUM, Strain/Indicator: TA100, Metabolic Activation: RAT LIVER S-9, AROCLOR 1254, Method: STANDARD PLATE): inactive; negative; mutagenic call (Test System: AMES SALMONELLA TYPHIMURIUM, Strain/Indicator: TA102, Metabolic Activation: NONE, Method: STANDARD PLATE): inactive; negative; mutagenic call (Test System: AMES SALMONELLA TYPHIMURIUM, Strain/Indicator: TA102, Metabolic Activation: RAT LIVER S-9, AROCLOR 1254, Method: STANDARD PLATE): inactive; negative; mutagenic call [5]: inactive; negative; mutagenic call (Test System: AMES SALMONELLA TYPHIMURIUM, Strain/Indicator: TA1537, Metabolic Activation: RAT LIVER S-9, AROCLOR 1254, Method: STANDARD PLATE): inactive; negative |
| CC(C)=CCl | – | – | inactive; negative | inactive; negative | inactive; negative | inactive; negative | inactive; negative | inactive; negative | inactive; negative | inactive; negative | inactive; negative | inactive; negative | inactive; negative | inactive; negative | mutagenic call (End Point: IN VITRO CHROMOSOMAL ABERRATIONS, Test System: CHO CELLS, Metabolic Activation: NONE): inactive; negative; mutagenic call (End Point: IN VITRO CHROMOSOMAL ABERRATIONS, Test System: CHO CELLS, Metabolic Activation: RAT, LIVER, S-9, AROCLOR 1254): inactive; negative; mutagenic call (Test System: AMES SALMONELLA TYPHIMURIUM, Strain/Indicator: TA102, Metabolic Activation: RAT, LIVER, S-9, PHENOBARBITAL AND 5,6-BENZOFLAVONE, Method: STANDARD PLATE): inactive; negative; mutagenic call (Test System: AMES SALMONELLA TYPHIMURIUM, Strain/Indicator: TA2638, Metabolic Activation: RAT, LIVER, S-9, PHENOBARBITAL AND 5,6-BENZOFLAVONE, Method: STANDARD PLATE): inactive; negative; mutagenic call (Test System: E. COLI, Strain/Indicator: WP2 (PKM101), Metabolic Activation: RAT, LIVER, S-9, PHENOBARBITAL AND 5,6-BENZOFLAVONE, Method: STANDARD PLATE): inactive; negative; mutagenic call (Test System: E. COLI, Strain/Indicator: WP2 UVRA (PKM101), Metabolic Activation: RAT, LIVER, S-9, PHENOBARBITAL AND 5,6-BENZOFLAVONE, Method: STANDARD PLATE): inactive; negative; mutagenic call (Test System: MOUSE LYMPHOMA, Strain/Indicator: L5178Y (TK+/TK-), Metabolic Activation: RAT, LIVER, S-9, AROCLOR 1254, Method: SUSPENSION/PLATE): active; positive. reevaluation of results: positive; mutagenic call (Test System: Mouse lymphoma, Strain/Indicator: L5178Y (tk+/tk-), Metabolic Activation: None, Method: Suspension/plate): inactive; negative |
| CN(C)c1ccc(/C=C/C(=O)c2ccccc2)cc1 | inactive; negative | inactive; negative | – | – | – | – | – | – | – | – | – | – | – | – | mutagenic call [2]: inactive; negative; mutagenic call [4]: inactive; negative |
| O=C1c2ccccc2C(=O)N1CCCN1c2ccccc2Sc2ccc(Cl)cc21 | – | – | – | – | – | – | – | – | – | – | – | – | – | – | mutagenic call (Test System: AMES SALMONELLA TYPHIMURIUM, Strain/Indicator: TA98, Metabolic Activation: NONE, Method: SPOT TEST): inactive; negative |
| CCN1CCOCC1 | – | – | inactive; negative | inactive; negative | inactive; negative | inactive; negative | inactive; negative | inactive; negative | active; positive | inactive; negative | active; positive | inactive; negative | inactive; negative | inactive; negative | mutagenic call (Test System: AMES SALMONELLA TYPHIMURIUM, Strain/Indicator: TA1535, Metabolic Activation: HAMSTER, LIVER, S-9, AROCLOR 1254 (5 OR 30%), Method: PREINCUBATION): active; positive; mutagenic call (Test System: AMES SALMONELLA TYPHIMURIUM, Strain/Indicator: TA1535, Metabolic Activation: RAT, LIVER, S-9, AROCLOR 1254 (5 OR 30%), Method: PREINCUBATION): active; positive |

Reference: PubChem BioAssay AID1259407 (Chemical Carcinogenesis Research Information System (CCRIS), 2018)
